Measurements taken from patent US20110077230A1, “COPPER ORGANOCOMPLEXES, USE THEREOF AS ANTITUMOR MEANS AND FOR PROTECTING HEALTHY TISSUE FROM IONIZING RADIATION” (CHARITE - UNIVERSITATSMEDIZIN BERLIN, priority 2008, published 2011).

Legend:
melanoma B 16 = experiment: B 16 melanoma in mice, intraabdominal administration; format: in vivo, mice of the line C 57Bl; settings: 5 mg/kg intraabdominally
Protocol: The melanoma B 16 was implanted in 20 mice of the line C 57Bl by subcutaneous injection into the right thigh. The animals were divided into four groups of five mice each. Group I received complex A at a dosage of 7 mg/kg, dissolved in DMSO, which was administered intraabdominally in a 4% suspension in physiological saline. Each administration was performed 3, 5, 7 and 9 days after trans-plantation of the tumor.
Group II was treated as group I, but using a dosage of 5 mg/kg.
Group III was treated as group I, but received 5 mg/kg of melphalan hydrochloride instead of complex A.
Group IV remained untreated.

[1] = system: colon adenocarcinoma tumor (AKATOL); experiment: Transplanted colon adenocarcinoma (AKATOL), peroral administration; format: in vivo, mice of the BALB line; settings: 10 mg/kg peroral in olive oil
Protocol: Tumor cells were transplanted in mice of the BALB line by injection into the thighs. 3 of 4 groups received the respective preparation on the peroral route 3, 4, 5, 6, 7, 8, 9 and 10 days after tumor implantation.
Group I: 10 mg/kg complex A suspended in olive oil.
Group II: 5 mg/kg complex A suspended in olive oil.
Group III: 10 mg/kg sarcolysine suspended in olive oil.
On day 21 of the experiment the animals were sacrificed and examined.

[2] = system: Ehrlich ascites adenocarcinoma; experiment: Ehrlich ascites adenocarcinoma in mice; format: in vivo, white mice
Protocol: The tumor was implanted intraabdominally in white mice of no particular race.
Group I received complex A orally as a suspension in olive oil at a dosage of 10 mg/kg 3, 4, 5, 6, 7, 8, 9 and 10 days after tumor implantation.
Group II received the same treatment, but using sarcolysine instead of complex A.
Group III received no treatment.
The animals were sacrificed and examined on the 11th day after tumor implantation.

neutrophils = experiment: Antioxidant properties: ROS formation in neutrophils; format: cell-based, male mice of the NMRI line; settings: triggered by PMA and fMLF, depending on the dosage
Description: The complexes A and C show a pronounced effect as antioxidant in an environment having an excess of reactive oxygen species (ROS). Thus, ROS formation in neutrophils obtained from male mice of the NMRI line was triggered by two activators: phorbol 12-myristate 13-acetate (PMA) and N-formyl-methionyl-leucylphenylalanine (fMLF).

[3] = system: human mammary gland tumor cells, T2N1M0 stage; experiment: In vitro effect on human mammary gland tumor cells, Experiment 1; format: cell-based
Protocol: (§1) Tumor cells were collected from the surgical material of female patients suffering from mammary carcinoma at two different stages. The tumor tissue was added with sterile 0.25% trypsin solution and centrifuged repeatedly in RPMI-1640 nutrient medium for 15 minutes at 1500 revolutions per minute. The amount of resulting cells was counted and the suspension of tumor cells divided into five equal groups. The RPMI-1640 nutrient medium was added with 12% fetal calf serum. The cells were incubated for 48 h at 37° C. in a 5% CO2 stream.
(§2) The preparations were dissolved in 4% DMSO and physiological saline and acidified with HCl.
(§3) Two experiments were performed using cancer cells derived from tumors of different stages. To differentiate the various stages of cancer, the TNM classification is used internationally which takes into account the tumor size (T), lymph node affection (N=nodal status) and the extent of metastasis (M).
(T2: tumor up to 5 cm; N1; metastases in 3 lymph nodes; M0: no distant metastases). A suspension including 40 million cells was added with 50 μl of each preparation.
(§4) The 5 groups with cancer cells received the following:
(§5) After subjecting the preparations to flow incubation for 60 minutes, trypan blue stained cells were produced, and dead cells and apoptosis could be determined; dead cells and apoptotic cells were determined in specific units of time and morphological findings.

[4] = system: human mammary gland tumor cells, T4N2M0 stage; experiment: In vitro effect on human mammary gland tumor cells, Experiment 2; format: cell-based
Protocol: as §1, §2, §3
(T3: large tumor spreading into the tissue surrounding the breast; N2: metastases up to 9 axillary lymph nodes, M0: no distant metastases). A suspension including 40 million cells was added with 50 μl of each preparation.
as §4, §5

| SMILES | Apoptotic index AI (melanoma B 16) | Bone marrow index MI BM (melanoma B 16) | Inhibition of tumor growth, mass percent (melanoma B 16) | Inhibition of tumor growth, volume percent (melanoma B 16) | Mitotic index of tumor cells MI (melanoma B 16) | Average volume of tumor (melanoma B 16; days 3, 5, 7, 9) | Average weight of tumor (melanoma B 16; days 3, 5, 7, 9) | % inhibition [1] | Average weight of tumor ([1]; days 3 to 10, day 21) | % inhibition ([2]; 10 mg/kg orally) | Average MI of bone marrow ([2]; 10 mg/kg orally) | Average MI of tumor cells ([2]; 10 mg/kg orally) | Average number of tumor cells ([2]; 10 mg/kg orally in olive oil, days 3 to 10, day 11) | formation of ROS in neutrophils (neutrophils) | Living cells, % ([3]; Experiment 1, T2N1M0) | Dead cells, % ([3]; Experiment 1, T2N1M0, 40 million cells, 50 μl of preparation) | Living cells, % ([4]; Experiment 2, T4N2M0) | Dead cells, % ([4]; Experiment 2, T4N2M0, 40 million cells, 50 μl of preparation) |
| --- | --- | --- | --- | --- | --- | --- | --- | --- | --- | --- | --- | --- | --- | --- | --- | --- | --- | --- |
| NC(Cc1ccc(N(CCCl)CCCl)cc1)C(=O)O (racemic) [sarcolysine, 4-[bis(2-chloroethyl)amino]-D,L-phenylalanine, reference compound] | 3.07 ‰ | 1.88 ‰ | mass percent 62.87% | volume percent 35.78% | 2.43 ‰ | 1.4 cm^3 | 482.6 mg | 43% | 1.85 g | 47.4% | 0.52 ± 0.26 ‰ | 2.0 ± 1.87 ‰ | 77 10^6 | hardly achieved | 54.0 ± 2.22% | 46.0 ± 2.22% | 51.0 ± 2.23% | 49.0 ± 2.23% |
| O=c1[nH]c(=O)n(C2CCCO2)cc1F (stereo not shown) [tegafur, N-(2-furanidil)-5-fluorouracil, reference compound] |  |  |  |  |  |  |  |  |  |  |  |  |  | hardly achieved |  |  |  |  |
